{
  "source": "ChEMBL document CHEMBL1697723",
  "about": "“A predictive ligand-based Bayesian model for human drug-induced liver injury” (Drug Metab Dispos, 2010)",
  "data": [
    {"system": "Hepatotoxicity", "experiment": "(§1) Human drug-induced liver injury (DILI) modelling dataset from Ekins et al", "settings": "not given", "values": [
      {"molecule": "CCCSc1ccc2nc(NC(=O)OC)[nH]c2c1", "note": "[ALBENDAZOLE]", "Hepatotoxicity": "DILI positive (training set)"},
      {"molecule": "CS(=O)(=O)OCCCCOS(C)(=O)=O", "note": "[BUSULFAN]", "Hepatotoxicity": "DILI positive (training set)"},
      {"molecule": "Cc1ccc(C)c(OCCCC(C)(C)C(=O)O)c1", "note": "[GEMFIBROZIL]", "Hepatotoxicity": "DILI positive (training set)"},
      {"molecule": "C#C[C@]1(O)CC[C@H]2[C@@H]3CCc4cc(O)ccc4[C@H]3CC[C@@]21C", "note": "[ETHINYL ESTRADIOL]", "Hepatotoxicity": "DILI positive (test set)"},
      {"molecule": "CCCCc1nc(Cl)c(CO)n1Cc1ccc(-c2ccccc2-c2nn[nH]n2)cc1", "note": "[LOSARTAN]", "Hepatotoxicity": "DILI positive (test set)"},
      {"molecule": "COC(=O)C(c1ccccc1)C1CCCCN1", "note": "(stereo not drawn) [METHYLPHENIDATE]", "Hepatotoxicity": "DILI positive (test set)"},
      {"molecule": "O=C(O)CCCC[C@@H]1SC[C@@H]2NC(=O)N[C@@H]21", "note": "[BIOTIN]", "Hepatotoxicity": "DILI negative (training set)"},
      {"molecule": "CC(C(=O)O)c1ccc(N2CC=CC2)c(Cl)c1", "note": "(stereo not drawn) [PIRPROFEN]", "Hepatotoxicity": "DILI positive (test set)"},
      {"molecule": "CC(=O)OCC(=O)[C@@]1(O)CC[C@H]2[C@@H]3CCC4=CC(=O)CC[C@]4(C)[C@@]3(F)[C@@H](O)C[C@@]21C", "note": "[FLUDROCORTISONE ACETATE]", "Hepatotoxicity": "DILI negative (training set)"},
      {"molecule": "CCc1nn(CCCN2CCN(c3cccc(Cl)c3)CC2)c(=O)n1CCOc1ccccc1", "note": "[NEFAZODONE]", "Hepatotoxicity": "DILI positive (test set)"},
      {"molecule": "CCCCNc1ccc(C(=O)OCCN(C)C)cc1.Cl", "note": "[TETRACAINE HYDROCHLORIDE]", "Hepatotoxicity": "DILI negative (training set)"},
      {"molecule": "COc1ccc2c(C(=S)N(C)CC(=O)O)cccc2c1C(F)(F)F", "note": "[TOLRESTAT]", "Hepatotoxicity": "DILI positive (test set)"},
      {"molecule": "O=C(Cc1cccs1)N[C@@H]1C(=O)N2C(C(=O)[O-])=C(C[n+]3ccccc3)CS[C@H]12", "note": "[CEPHALORIDINE]", "Hepatotoxicity": "DILI positive (test set)"},
      {"molecule": "COc1cc(NC(C)CCCN)c2ncccc2c1.O=P(O)(O)O.O=P(O)(O)O", "note": "(stereo not drawn) [PRIMAQUINE PHOSPHATE]", "Hepatotoxicity": "DILI negative (training set)"},
      {"molecule": "COc1cccc2c1C(=O)c1c(O)c3c(c(O)c1C2=O)C[C@@](O)(C(=O)CO)C[C@@H]3O[C@H]1C[C@H](N)[C@@H](O)[C@H](C)O1", "note": "[EPIRUBICIN]", "Hepatotoxicity": "DILI negative (test set)"},
      {"molecule": "C=C1c2cccc(O)c2C(=O)C2=C(O)[C@]3(O)C(=O)C(C(N)=O)=C(O)[C@@H](N(C)C)[C@@H]3[C@@H](O)[C@H]12.Cl", "note": "[METHACYCLINE HYDROCHLORIDE]", "Hepatotoxicity": "DILI positive (training set)"},
      {"molecule": "CN[C@@H](C)[C@@H](O)c1ccccc1.Cl", "note": "[PSEUDOEPHEDRINE HYDROCHLORIDE]", "Hepatotoxicity": "DILI negative (training set)"},
      {"molecule": "ClC=C(Cl)Cl", "note": "[TRICHLOROETHYLENE]", "Hepatotoxicity": "DILI positive (test set)"},
      {"molecule": "Clc1ccc(Cl)cc1", "note": "[1,4-DICHLOROBENZENE]", "Hepatotoxicity": "DILI positive (test set)"},
      {"molecule": "CCCN(CCC)C(=O)Cc1c(-c2ccc(Cl)cc2)nc2ccc(Cl)cn12", "note": "[ALPIDEM]", "Hepatotoxicity": "DILI positive (test set)"},
      {"molecule": "Clc1ccc(CCC(Cn2ccnc2)Sc2c(Cl)cccc2Cl)cc1.O=[N+]([O-])O", "note": "(stereo not drawn) [BUTOCONAZOLE NITRATE]", "Hepatotoxicity": "DILI negative (test set)"},
      {"molecule": "CCOC(=O)[C@H](CCc1ccccc1)N[C@H]1CCc2ccccc2N(CC(=O)O)C1=O", "note": "[BENAZEPRIL]", "Hepatotoxicity": "DILI negative (training set)"},
      {"molecule": "ClC(Cl)(Cl)Cl", "note": "[CARBON TETRACHLORIDE]", "Hepatotoxicity": "DILI positive (test set)"},
      {"molecule": "CC[N+](C)(C)c1cccc(O)c1.[Cl-]", "note": "[EDROPHONIUM CHLORIDE]", "Hepatotoxicity": "DILI negative (training set)"},
      {"molecule": "COc1cc2c(cc1OC)C(=O)C(CC1CCN(Cc3ccccc3)CC1)C2", "note": "(stereo not drawn) [DONEPEZIL]", "Hepatotoxicity": "DILI negative (training set)"},
      {"molecule": "COC1=CC(=O)C[C@@H](C)[C@]12Oc1c(Cl)c(OC)cc(OC)c1C2=O", "note": "[GRISEOFULVIN]", "Hepatotoxicity": "DILI positive (training set)"},
      {"molecule": "C[C@H]1C(=O)O[C@@H]2CCN3CC=C(COC(=O)[C@](C)(O)[C@]1(C)O)[C@H]23", "note": "[MONOCROTALINE]", "Hepatotoxicity": "DILI positive (training set)"},
      {"molecule": "Nc1ccc(O)cc1", "note": "[4-AMINOPHENOL]", "Hepatotoxicity": "DILI negative (test set)"},
      {"molecule": "N=C(N)NCCN1CCCCCCC1.N=C(N)NCCN1CCCCCCC1.O=S(=O)(O)O", "note": "[GUANETHIDINE SULFATE]", "Hepatotoxicity": "DILI positive (test set)"},
      {"molecule": "CC1(C)S[C@@H]2[C@H](NC(=O)[C@H](NC(=O)N3CCNC3=O)c3ccccc3)C(=O)N2[C@H]1C(=O)[O-].[Na+]", "note": "[AZLOCILLIN SODIUM]", "Hepatotoxicity": "DILI negative (test set)"},
      {"molecule": "C=C1CC[C@H](O)C/C1=C/C=C1\\CCC[C@]2(C)[C@@H]([C@H](C)CCCC(C)(C)O)CC[C@@H]12.O", "note": "[CALCIFEDIOL]", "Hepatotoxicity": "DILI positive (test set)"},
      {"molecule": "CN(C)/N=N/c1[nH]cnc1C(N)=O", "note": "[DACARBAZINE]", "Hepatotoxicity": "DILI positive (test set)"},
      {"molecule": "CC(C(=O)O)c1ccc2oc(-c3ccc(Cl)cc3)nc2c1", "note": "(stereo not drawn) [BENOXAPROFEN]", "Hepatotoxicity": "DILI positive (test set)"},
      {"molecule": "CYANOCOBALAMIN", "Hepatotoxicity": "DILI negative (training set)"},
      {"molecule": "CC[C@]1(O)C[C@H]2CN(CCc3c([nH]c4ccccc34)[C@@](C(=O)OC)(c3cc4c(cc3OC)N(C=O)[C@H]3[C@@](O)(C(=O)OC)[C@H](OC(C)=O)[C@]5(CC)C=CCN6CC[C@]43[C@@H]65)C2)C1.O=S(=O)(O)O", "note": "[VINCRISTINE SULFATE]", "Hepatotoxicity": "DILI positive (test set)"},
      {"molecule": "COC(=O)Nc1nc2ccccc2[nH]1", "note": "[CARBENDAZIM]", "Hepatotoxicity": "DILI positive (training set)"},
      {"molecule": "CC(=O)OCC1=C(C(=O)[O-])N2C(=O)[C@@H](NC(=O)CSc3ccncc3)[C@H]2SC1.[Na+]", "note": "[CEPHAPIRIN SODIUM]", "Hepatotoxicity": "DILI negative (test set)"},
      {"molecule": "CCCCC(=O)N(Cc1ccc(-c2ccccc2-c2nnn[nH]2)cc1)[C@H](C(=O)O)C(C)C", "Hepatotoxicity": "DILI negative (test set)"},
      {"molecule": "O=P1(NCCCl)OCCCN1CCCl", "note": "(stereo not drawn) [IFOSFAMIDE]", "Hepatotoxicity": "DILI positive (test set)"},
      {"molecule": "C[N+](C)(C)CCOP(=O)(O)OP(=O)([O-])OC[C@H]1O[C@@H](n2ccc(N)nc2=O)[C@H](O)[C@@H]1O", "note": "[CITICOLINE]", "Hepatotoxicity": "DILI negative (test set)"},
      {"molecule": "CC(COc1ccccc1)N(CCCl)Cc1ccccc1.Cl", "note": "(stereo not drawn) [PHENOXYBENZAMINE HYDROCHLORIDE]", "Hepatotoxicity": "DILI negative (training set)"},
      {"molecule": "Cc1ncc([N+](=O)[O-])n1CCO", "note": "[METRONIDAZOLE]", "Hepatotoxicity": "DILI positive (training set)"},
      {"molecule": "CCOC(=O)[C@H](CCc1ccccc1)N[C@@H](C)C(=O)N1Cc2ccccc2C[C@H]1C(=O)O", "Hepatotoxicity": "DILI positive (training set)"}
    ]},
    {"system": "Hepatotoxicity", "experiment": "as §1", "settings": "Liver", "values": [
      {"molecule": "NNCCc1ccccc1", "note": "[PHENELZINE]", "Hepatotoxicity": "DILI negative (training set)"},
      {"molecule": "CO[C@H]1/C=C/O[C@@]2(C)Oc3c(C)c(O)c4c(c3C2=O)C2=NC3(CCN(CC(C)C)CC3)NC2=C(NC(=O)/C(C)=C\\C=C\\[C@H](C)[C@H](O)[C@@H](C)[C@@H](O)[C@@H](C)[C@H](OC(C)=O)[C@@H]1C)C4=O", "note": "[RIFABUTIN]", "Hepatotoxicity": "DILI positive (test set)"},
      {"molecule": "CC1(C)S[C@@H]2[C@H](NC(=O)[C@H](NC(=O)N3CCN(S(C)(=O)=O)C3=O)c3ccccc3)C(=O)N2[C@H]1C(=O)[O-].[Na+]", "note": "[MEZLOCILLIN SODIUM]", "Hepatotoxicity": "DILI positive (test set)"},
      {"molecule": "Nc1ccn([C@H]2CC[C@@H](CO)O2)c(=O)n1", "note": "[ZALCITABINE]", "Hepatotoxicity": "DILI negative (training set)"},
      {"molecule": "O=S(=O)(O)O.Oc1cccc2cccnc12.Oc1cccc2cccnc12", "note": "[OXYQUINOLINE SULFATE]", "Hepatotoxicity": "DILI positive (test set)"}
    ]}
  ]
}
